Measured values: patent publication US6344191B2, “Chemical attractants for moths” (The United States of America as represented by the …, priority 1998, dated 2002)

Legend:
Assay in all cases: Field trapping test, baited Trappit dome traps in apple and pear orchards
Assay type in all cases: in vivo
Details in all cases: for Numbers captured in traps: Experiment 4, 0.25% acetic acid in drowning solution and/or 1 ml alcohol in cap, unbaited control
[1] = tested on: spotted cutworm (Xestia c-nigrum)
Protocol: (§1) Materials and Methods. The Trappit™ dome trap (Agrisense, Fresno, Calif.) was used in all tests. Two hundred ml of a drowning solution was used in the reservoir of all traps. This solution was 200 ml water, 25 μl of detergent, 50 μl yellow, 25 μl blue, and 60 μl red food dyes (McCormick, Hunt Valley, N.J.), and 20 mg clay. Acetic acid, when tested, was added to the drowning solution as a percent of the solution. Alcohols tested were loaded in polyethylene caps (No. 60975D-3, Kimball Glass, Vineland, N.J.) that were impaled on a push pin glued to the inside of the top of the trap. Traps were serviced two or three times per week depending on weather conditions, and the drowning solution with or without acetic acid was replaced weekly. Alcohols in polyethylene caps were replaced monthly.
(§2) All experiments were conducted in commercial apple and pear orchards. Traps were hung from tree branches at 1.5 to 2 m above ground, with 10 m between traps within a block and 10 m between adjacent blocks.
(§3) Experiment Overview. Four trapping experiments were conducted in apple and pear orchards in the Yakima Valley during the summer of 1998. An initial experiment compared captures of pest moths in traps baited with the combination of acetic acid and 3-methyl-1-butanol to acetic acid alone and to fermented molasses solution. The second experiment was a comparison of the attractiveness of the combination of acetic acid and 3-methyl-1-butanol with varying percentages of acetic acid in the drowning solution. The third experiment was a comparison of the attractiveness of the combination of acetic acid and 3-methyl-1-butanol with varying doses of the 3-methyl-1-butanol in the cap. The fourth experiment was a test of possible synergism or enhancement of acetic acid with 3-methyl-1-butanol and acetic acid with 3-methyl-1-pentanol and a comparison of the two alcohols.
(§4) Trap catch data for each species was subjected to an ANOVA and means were separated by Duncan's New Multiple Range Test for the first and fourth experiments. Linear regression was used to analyze trap data from the second and third experiments to determine if their was a significant relationship between concentration (acetic acid) or dose (3-methyl-1-butanol) and captures of moths in traps.
(§5) Experiment 1. Traps were baited (1) with 0.25% acetic acid in the drowning solution, (2) with 0.5% acetic acid in the drowning solution and one ml of 3-methyl-1-butanol in a polyethylene cap, or (3) with 200 ml of a 10% solution of molasses in water. A randomized complete block design was used, with 4 blocks set up in early May. Traps were maintained through May and June and again in August.
Experiment 4. […]

[2] = tested on: Lacanobia subjuncta
Protocol: as §1, §2, §3, §4, §5
(§6) Experiment 2. Traps were all baited with one ml of 3-methyl-1-butanol in a polyethylene cap and with either no acetic acid in the drowning solution or with 0.008, 0.03, 0.125, 0.5, or 2% glacial acetic acid by volume in the 200 ml of drowning solution. A randomized complete block design was used, with 4 blocks set up in late July, with each of the 6 treatments represented within each block. This experiment was maintained through August and early September.
(§7) Experiment 3. Traps were all baited with 0.25% acetic acid in the drowning solution and either 0, 12.5, 25, 50, or 100% 3-methyl-1-butanol in one ml of a mixture of 3-methyl-1-butanol and mineral oil. A randomized complete block design was used with each of the 5 treatments represented within each block. This experiment was set up in late July and was maintained through early September.
(§8) Experiment 4. Traps were either unbaited (control) or were baited with 0.25% acetic acid in the drowning solution (acetic acid), with 0.25% acetic acid in the drowning solution and one ml of 3-methyl-1-butanol in a polyethylene cap, with 0.25% acetic acid in the drowning solution and one ml of 3-methyl-1-pentanol in a polyethylene cap, with one ml of 3-methyl-1-butanol in a cap, or with one ml of 3-methyl-1-pentanol in a cap.

[3] = tested on: bertha armyworm (Mamestra configurata)
Protocol: as §1, §2, §3, §4, §5, §6, §7, §8

[4] = Experiment 2, 1 ml 3-methyl-1-butanol in cap, no acetic acid
[5] = Experiment 1, 0.25% acetic acid in drowning solution, 200 ml 10% molasses solution

| Structure (SMILES) | Numbers captured in traps [1] | Numbers of moths captured in traps [2, 4] | Numbers captured in traps [2] | Numbers of moths captured in traps [3, 4] | Numbers captured in traps [3] | Catches of female moths, acetic acid versus molasses ([1]; Experiment 1, females, 0.25% acetic acid, 10% molasses solution) | Catches of male or female moths, acetic acid versus molasses [2, 5] | Catches of male or female moths, acetic acid versus molasses [3, 5] |
| --- | --- | --- | --- | --- | --- | --- | --- | --- |
| CC(C)CCO [3-methyl-1-butanol] | significantly higher than the unbaited traps | nearly no moths | significantly higher than the unbaited traps | Nearly no | significantly higher than the unbaited traps |  |  |  |
| CC(=O)O [acetic acid, reference compound] | significantly higher than the unbaited traps |  | significantly higher than the unbaited traps |  | significantly higher than the unbaited traps | no difference | no difference | no difference |
| CCC(C)CCO (centres unmarked) [3-methyl-1-pentanol] | significantly higher than the unbaited traps |  | significantly higher than the unbaited traps |  | significantly higher than the unbaited traps |  |  |  |
